Data as given in US6080542A, “Plant peptide transport gene” (priority 1997, dated 2000).

Legend:
[1] = system: ATPTR2Ap; experiment: Uptake of L-leucyl-L-[3H]leucine and competition, PB1X-9B[pPTF4]; details: PB1X-9B[pPTF4], pH 5.5, dileucine and leucine at 100-fold
Description: The kinetics of ATPTR2A-mediated transport of peptides in yeast was evaluated by transforming pPTF4 into the S. cerevisiae peptide transport mutant, PB1X-9B and measuring the uptake of tritiated Leu-Leu dipeptide.
(§1) L-leucyl-L [^3 H]leucine trifluoroacetic acid (TFA) was synthesized by standard solution phase techniques (Naider, F. et al., J. Biol. Chem. 249:9-20 (1974)). Uptake of L-leucyl-L-[H]leucine was performed as by Island, M. D. et al (J. Bacteriol. 169:2132-2136 (1987)), with the following modifications. Cells were grown to late log phase (26×10^7 cells/ml) overnight in SC with 2% glucose, 1 mg/ml allantoin plus amino acids to supplement auxotrophic markers. To induce peptide transport. 5-15 ml from this culture was added to 100 ml fresh medium such that the density was 3.0×10^6 cells/ml. This culture was allowed to grow (approx. 2 hrs.) to a density of 6.0×10^6 cells/ml and then harvested by centrifugation. The pelleted cells were washed twice with 10 ml cold dH2 O and suspended in cold 2% glucose to a final concentration of 2×10^8 cells/ml and incubated at 30° C. for 15 min. 500 μl of cells were then added to an equal volume of reaction mixture (30° C.) and incubated at 30°-C. At 20, 40, 60, 90, and 120 sec. intervals, 190 μl portions were removed, filtered over filters (pore size, 0.45 μm; GN-6; Gelman Sciences, Inc., Ann Arbor, Mich.) and washed 2 times with 5 ml cold, sterile dH2 O and once with 5 ml dH2 O at room temperatures. Filters were placed in scintillation vials with 5 ml of Budget-Solve scintillation cocktail (Research Products International Corp., Mount Prospect, Ill.) and counted (liquid scintillation counter; LS-7000; Beckman Instruments, Inc., Fullerton, Calif.). The final concentration of the components in the uptake assay was 1% glucose, 40 mM sodium citrate-potassium phosphate buffer (pH 5.5), and 1.5×105 M L-leucyl-L-[^3 H]leucine (specific activity, 10 mCi/mmole). Uptake is expressed as nanomoles per mg dry weight.

[2] = biological target: T1, yeast peptide transport system (Saccharomyces cerevisiae, UniProt P32901); experiment: Competition for L-leucyl-L-[3H]leucine uptake, PB1X-9B[pJP9]; format: cell-based; details: pH 5.5
T1 construct: The ptr2 gene encodes a 602 amino acid hydrophobic polypeptide with 12 putative hydrophobic segments; expressed in transfected cells; host or cells: S. cerevisiae peptide transport mutant PB1X-9B (ptr2-2) transformed with pJP9
T1 sequence (P32901 1-601): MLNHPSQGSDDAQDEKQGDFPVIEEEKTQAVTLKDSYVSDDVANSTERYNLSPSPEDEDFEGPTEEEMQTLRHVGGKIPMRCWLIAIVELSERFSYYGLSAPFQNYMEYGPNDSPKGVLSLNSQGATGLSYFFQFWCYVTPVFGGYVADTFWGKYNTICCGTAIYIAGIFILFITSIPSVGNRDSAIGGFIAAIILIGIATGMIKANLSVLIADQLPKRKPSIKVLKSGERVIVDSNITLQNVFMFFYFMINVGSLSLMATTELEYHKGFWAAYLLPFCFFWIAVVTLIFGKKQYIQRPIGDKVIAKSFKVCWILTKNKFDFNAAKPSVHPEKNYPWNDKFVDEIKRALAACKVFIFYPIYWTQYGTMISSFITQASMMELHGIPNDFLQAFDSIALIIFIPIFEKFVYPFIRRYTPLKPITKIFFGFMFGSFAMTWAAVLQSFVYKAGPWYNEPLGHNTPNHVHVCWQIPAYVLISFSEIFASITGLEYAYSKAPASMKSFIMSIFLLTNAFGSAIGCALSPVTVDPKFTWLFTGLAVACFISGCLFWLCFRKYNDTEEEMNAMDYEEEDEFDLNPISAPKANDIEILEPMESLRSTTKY
Description: as §1

[3] = system: A. thaliana seedlings; experiment: Root assay, toxic peptide plus competitor peptide; format: in vivo, Arabidopsis thaliana
Description: Approximately 15 A. thaliana seeds were placed in a row at one end of 10 cm plate containing 20 ml of Arabidopsis growth media (Kranz and Kirchheim 1987). The seeds were incubated 3-5 days in the light with the plate set in an upright position. When the roots were approximately 1-2 cm long, sterile paper filter disks were placed immediately in front of the root tips on the right and left side of the plate 2 cm from the edge of the plate. A line was drawn across the plate using the top of the disks as a guide marking zero growth. 5 μl of toxic amino acid analog, toxic peptide, or toxic peptide plus competitor was added to one disk while H2 O was place on the other disk. The plates were incubated for an additional 3-5 days. The average length of the roots was measured from the line and the results expressed as a percentage of control root growth.

[4] = system: PB1X-9B; experiment: Toxic peptide disk assay, peptide transport mutant; format: cell-based, Saccharomyces cerevisiae
Description: (§2) Since ptr mutants are deficient in peptide transport, they are unable to take up toxic peptides. This inability renders such mutants resistant to the toxic effect of the peptides. In order to determine whether the polynucleotides of the present invention could restore toxic peptide sensitivity to ptr2 mutants, the sensitivity of plasmid-transformed cells was determined. Sensitivity to toxic amino acids and peptides was measured as described by Island, M. D. et al. (J. Bacteriol. 169:2132-2136 (1987)). Briefly, a filter disk containing 0.38 μmoles of the toxic compound was placed on a lawn containing 5×10^6 cells and the plate incubated at 30° C. for 1 to 2 days. Resulting halos were measured across their diameter. The toxic dipeptides Leu-Eth, Ala-Eth, Leu-F-Phe and Oxalysine were synthesized by standard solution phase techniques (Naider, F. et al., J. Biol. Chem. 249:9-20 (1974). The results of this experiment are shown in Table 2 (values are the mean of the diameters of the observed zone of inhibition in millimeters±standard error of the mean of at least two independent experiments).

[5] = system: PB1X-9B (pPTF4); experiment: Toxic peptide disk assay, mutant with plant gene ATPTR2A; format: cell-based, Saccharomyces cerevisiae
Description: as §2

[6] = system: S. cerevisiae strains tested; experiment: Toxic peptide disk assay, statements covering several strains; format: cell-based, Saccharomyces cerevisiae; details: wild type (S288C) and transformants
Description: as §2

[7] = system: PB1X-9B (pJP9); experiment: Toxic peptide disk assay, mutant with yeast peptide transport gene; format: cell-based, Saccharomyces cerevisiae; details: disk with 0.38 μmoles, lawn of 5×10^6 cells, 30° C., 1 to 2 days, mean ± standard error
Description: as §2

[8] = system: A. thaliana seeds; experiment: Seed germination with toxic peptides (minimum inhibitory concentration); format: in vivo, Arabidopsis thaliana; details: seeds exposed to the toxic compound
Description: Thus, A. thaliana seeds and seedlings were exposed to Ethionine, Ala-Eth, Leu-Eth, Leu-fluorophenylalanine or oxalysine containing peptides, and the minimum inhibitory concentrations (MIC) were determined for each of the toxic compounds.
To measure the minimum inhibitory concentration of the toxic peptides, 10 to 15 A. thaliara seeds were place on solid Arabidopsis growth media with decreasing concentrations of toxic peptide. The seeds were incubated for 4 days in the dark and then scored for germination.

[9] = system: S288C; experiment: Toxic peptide disk assay, wild type; format: cell-based, Saccharomyces cerevisiae; details: disk with 0.38 μmoles, lawn of 5×10^6 cells, 30° C., 1 to 2 days, mean ± standard error
Description: as §2

[10] = system: PB1X-9B; experiment: Growth on peptides as amino acid source, peptide transport mutant; format: cell-based, Saccharomyces cerevisiae; details: PBIX-9B; 80 μM peptide in SC medium, 30° C., 72 hrs
Description: (§3) In addition, untransformed PB1X-9B, PB1X-9B transformed with plasmid pJP9 encoding the above-described yeast peptide transport gene, PB1X-2AΔ and PB1X-2A, the ptr2^+ parental strain to PB1X-2AΔ strain, were also assayed. Each strain was grown overnight in SC media plus uracil (non-transformed) or minus uracil (transformed) plus amino acids to stationary phase and harvested by centrifugation. Cells were then washed twice with sterile dH2 O and resuspended at 5×10^6 cells/ml. 5 μl of each suspension was applied as a small spot to a 2 ml volume of solid media in a 24 well plate. All peptides were suspended in sterile, deionized water and added to an equal volume of SC medium plus the appropriate amino acids and uracil when required. The medium for each assay thus consisted of SC medium plus or minus uracil supplemented with 80 μM of a specific peptide and auxotrophic requirements minus the amino acid components of the added peptide. The plates were incubated at 30° C. for 72 hrs. and then scored for growth.

[11] = system: PB1X-2AΔ (pDTF1); experiment: Growth on peptides, deletion strain transformed with ATPTR2B; format: cell-based, Saccharomyces cerevisiae; set-up: key: +: Growth was scored as uniform colony formation; -: negative controls which showed no growth; details: PBIX-2AΔ (pDTF1); 80 μM peptide in SC medium, 30° C., 72 hrs
Description: as §3, with “Thus, the peptide transport mutant PB1X-9B and deletion strain PB1X-2AΔ transformed with plasmids pPTF4 (ATPTR2A) or pDTF1 (ATPTR2B) were grown on various peptides to assess the specificity of the plant peptide transporter. In” for “In”

[12] = system: PB1X-9B (pPTF4); experiment: Growth on peptides, mutant transformed with plant gene ATPTR2A; format: cell-based, Saccharomyces cerevisiae; details: PBIX-9B (pPTF4); 80 μM peptide in SC medium, 30° C., 72 hrs
Description: as §3

[13] = system: PB1X-9B (pJP9); experiment: Growth on peptides, mutant transformed with yeast peptide transport gene; format: cell-based, Saccharomyces cerevisiae; details: for growth on peptide: PBIX-9B (pJP9), 80 μM peptide in SC medium, 30° C., 72 hrs; for growth on peptide (in words): PB1X-9B transformed with pJP9
Description: as §3

[14] = disk with 0.38 μmoles, lawn of 5×10^6 cells, 30° C., 1 to 2 days, mean ± standard error

Molecule: NCC(=O)CCC(=O)O [ALA, γ-aminolevulinic acid]
- competition for uptake of [3H]-dileucine [1]: lack of inhibition
- competition for uptake of [3H]-dileucine ([1]; listed as γ-aminolevulinic acid): did not compete
- competition for uptake of [3H]-dileucine [2]: able to compete
- reversal of toxicity by competitor (in words) ([3]; toxic peptide Ala-Eth): unable to reverse the inhibition
- root growth with toxic peptide plus competitor ([3]; toxic peptide Ala-Eth): 0 percentage of control root gro
- reversal of toxicity by competitor (in words) ([3]; toxic peptide Leu-Eth): unable to reverse the inhibition
- root growth with toxic peptide plus competitor ([3]; toxic peptide Leu-Eth): 0 percentage of control root gro

Molecule: CCSCC[C@H](N)C(=O)O [Eth, ethionine]
- sensitivity or resistance to toxic compound [4]: sensitive
- diameter of zone of inhibition [4, 14]: 44.5 ± 3.5 millimeters
- sensitivity or resistance to toxic compound [5]: sensitive
- diameter of zone of inhibition [5, 14]: 46.5 ± 0.5 millimeters
- sensitivity to toxic compound [6]: most sensitive
- diameter of zone of inhibition [7]: 46.5 ± 1.5 millimeters
- root length at which growth was arrested [8]: 1-2 mm
- diameter of zone of inhibition [9]: 39.0 ± 3.0 millimeters

Molecule: NCCOC[C@H](N)C(=O)O [Oxa-Lys, oxalysine]
- root length at which growth was arrested [8]: 1-2 mm

Molecule: Lys-Ala-Ala: tripeptide growth substrate (KAA)
- growth on peptide [10]: -
- growth on peptide [11]: +
- growth on peptide [12]: +
- growth on peptide [13]: +

Molecule: Thr-Pro-Arg-Lys: SEQ ID NO:7 (TPRK)
- growth on peptide [10]: -
- growth on peptide [11]: -
- growth on peptide [12]: -
- growth on peptide (in words) [13]: showed growth on all peptides except
- growth on peptide [13]: -

Molecule: Trp-His-Trp-Leu-Gln-Leu: SEQ ID NO:9 (WHWLQL)
- growth on peptide [10]: -
- growth on peptide [11]: -
- growth on peptide [12]: -
- growth on peptide (in words) [13]: showed growth on all peptides except
- growth on peptide [13]: -

Molecule: tetra-Lys: SEQ ID NO:5 (KKKK)
- growth on peptide [10]: -
- growth on peptide [11]: -
- growth on peptide [12]: -
- growth on peptide (in words) [13]: showed growth on all peptides except
- growth on peptide [13]: -

Molecule: tri-Ala: competitor tripeptide
- competition for uptake of [3H]-dileucine [1]: uptake competition similar to that seen for Leu-Leu
- competition for uptake of [3H]-dileucine [2]: uptake competition similar to that seen for Leu-Leu
- reversal of toxicity by competitor (in words) ([3]; toxic peptide Ala-Eth): unable to reverse the inhibition
- root growth with toxic peptide plus competitor ([3]; toxic peptide Ala-Eth): 0 percentage of control root gro
- reversal of toxicity by competitor (in words) ([3]; toxic peptide Leu-Eth): unable to reverse the inhibition
